Test results from patent publication US20230312577A1, “DUAL KINASE-BROMODOMAIN INHIBITORS” (MONASH UNIVERSITY, priority 2020, published 2023).

What was measured:
OPM2 cells [1] = test: Synergy between PI3K and BET inhibitors, apoptosis assay (TMRE) and synergy score; type: cell-based, human
Experimental: An apoptosis assay using TMRE stain by flow cytometry was performed in OPM2 cells with indicated compounds. […] Using Synergyfinder web application (https://synergyfinder.fimm.fi), synergy score was calculated. Zero Interaction Potency (ZIP) reference models was utilised.

Vk*MYC myeloma cells = test: In vivo therapeutic assessment, Vk*MYC multiple myeloma mouse model; conditions: once daily, 5 days a week, 3 weeks
Experimental: For Vk*MYC multiple myeloma mouse models, wild type C57/B16 mice were irradi-ated with 2 fractions of 3.3Gy (Gammacell® 40 caesium source, Atomic Energy of Canada Ltd., Ontario, Canada) prior to transplantation of Vk*MYC myeloma cells (2.4×10^5). Mice were monitored for tumour progression by measuring M-proteins via serum protein electropho-resis (SPEP). Mice were treated with 3 weeks of Cpd 010 or vehicle once daily (5 days a week) for 3 weeks when their average SPEP has reached 7-10%. Serial measurement of SPEP was carried out during and post therapy. Overall survival was recorded.

Eμ-Myc lymphoma cells = test: In vivo tumour burden from a single dose, Eμ-Myc lymphoma; design: species or system mouse
Experimental: B6.SJL-PtprcPepc/BoyJ (B6.CD45.1) mice were inoculated via tail vein injection with 5×10^5 Eμ-Myc lymphoma cells and left untreated for 12-14 days. A single injection of Cpd 010 at 35-45 mg/kg, or vehicle control (30% HPBCD) was administered. Half of the mice (n=6) were harvested 6 h post injection while the other half (n=6) were harvested 16 h later. Assessment of tumour burden was carried out on single cell suspension of harvested lymph nodes, spleen and blood by flow cytometry using antibodies as above. PD-L1 MFI was assessed by flow cytometry in harvested LNs using anti-mouse PD-L1-PE (ThermoFisher Scientific, clone MIH5) or isotype control antibodies (Mouse IgG2b PE, #559529). Harvested LNs were also washed in PBS and lysates were collected using Laemmli Buffer (AlfaAeser #J61337). They were processed as per our Western Blot protocol (see above) before they were probed for primary pAKT antibodies. Spleen size and weights were also measured between the treatment groups.

BRD4 = BRD4 (Homo sapiens, UniProt O60885); test: Cellular thermal shift assay (CETSA) in Ramos cells; type: cell-based; design: endogenous in cells; conditions: 20 μM, 40 min, vs DMSO
Experimental: Ramos cells (human Burkitt lymphoma cell line) at 20×10^6 were washed in PBS followed by resuspension in 5 mL serum-free RPMI. They were treated either with Cpd 010 or DMSO at 20 μM for 40 min at 37° C. with 5% CO2. Cells were then collected, resuspended in PBS and separated into PCR tubes. They were heated at designated temperature for strictly 3 min followed by another 3 min at 25° C. on ABI Applied Biosystems 9902 Veriti PCR Thermal Cycler. Immediately, they were placed in liquid nitrogen for snap freezing. The samples were freeze-thawed until the final samples were place on ice. They were centrifuged and supernatants were collected. Loading dye was mixed and these were processed as per our Western Blot protocol (see above). The following primary antibodies were used; rabbit BRD4 (Cell Signaling, #13440), rabbit BRD2 (Cell Signaling, #5848), and mouse anti-β-actin (Sigma-Aldrich, clone AC-74).

[2] = system: MLL-AF9 cells (IBET-151-sensitive and IBET-151-resistant); test: Apoptosis assay in BET-inhibitor-resistant cells (Annexin V/PI); type: cell-based, mouse; conditions: 72 h, Annexin V/PI
Experimental: Mouse AML cells; MLL-AF9 (IBET-151-sensitive and IBET-151-resistant) (5×10^4) were treated with indicated compounds for 72 h. Apoptotic analysis was performed by flow cytometry using Annexin V/propidium iodide (PI) stains. Data were collected on a BD LSR-Fortessa X20 (BD Biosciences) and analysed using FlowJo Software, version 10.0.7 (Tree Star). IC50 were calculated using the GraphPad Prism Software Version 7.0c. Data are representative of biological triplicates.

[3] = In vivo assessment of maximum tolerated dose (MTD)
Source text: The Peter MacCallum Cancer Centre Animal Ethics Committee approved all in vivo procedures in this study. B6.SJL-PtprcPepc/BoyJ (B6.CD45.1) mice were purchased from the Walter and Eliza Hall Institute (Melbourne, VIC). For enhanced solubility, Cpd 010 was reconstituted in double dose with 60% Hydroxypropyl-B-cyclodextrin (HPBCD; Cyclodextrin Technologies Development Inc.) and subsequently diluted with ultrafiltered water in 1:1 ratio prior to injection. Vehicle control was 60% HPBCD subsequently diluted 1:1 ratio with ultrafiltered water prior to injection for the final concentration of 30% HPBCD. MTD was carried out in 6-8 week old, non-tumour bearing female mice starting from 25 mg/kg of Cpd 010, 5 day intraperitoneal injection. Six mice received Cpd 010 and two mice received vehicle (30% HPBCD). Full Blood Examination (FBE), serum, spleen weight and morphological examination for toxicity were assessed on day 8 and day 15. In the absence of toxicity further dose escalation was carried out.

OPM2 cells [4] = test: Cell proliferation assay (ViaLight, cellular ATP); type: cell-based; conditions: Homo sapiens, OPM-2, 120 h, 5 days, 5 μM to 1 nM
Procedure, shortened: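 1×10^3 cells per well exposed to compounds at final 5 μM to 1 nM for 5 days. Viability read as cellular ATP by ViaLight luminescence, technical triplicates. GI50 computed from the dose–response.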

MYC target genes = test: RNA-Seq and Gene Set Enrichment Analysis (GSEA) in OPM2 cells; type: cell-based, human; conditions: 250 nM, 2 h
Experimental: OPM2 cells (4×10^6) were treated with 250 nM of Cpd 010 or DMSO vehicle for 2 h. Cells pellets were collected, and RNA was extracted using the Nucleospin RNA extraction kit (Macherey-Nagel) as per the manufacturer's instructions. The QuantSeq 30 mRNA-seq Library Prep Kit for Illumina (Lexogen) was used to generate libraries as per the manufacturer's instructions, which were sequenced on the NextSeq (Illumina; 75 bp SE). GSEA2-2.2.2 was used for identification of enriched signatures obtained from the MSigDB Hallmarks datasets (Liber-zon et al., 2015). Samples were prepared in technical triplicates.

Q: With `CC(=O)N1c2ccc(-c3ccc(CNC(=O)c4cn5cc(-c6cnc(N)nc6)nc(N6CCOCC6)c5n4)cc3)cc2CC[C@@H]1C` [Cpd 010, (S)-N-(4-(1-acetyl-2-methyl-1,2,3,4-tetrahydroquinolin-6-yl)benzyl)-6-(2-aminopyrimidin-5-yl)-8-morpholinoimidazo[1,2-a]pyrazine-2-carboxamide] as the compound, how does the induction of apoptosis (OPM2 cells [1]) read?
A: even more enhanced apoptosis compared to the combination of two drugs together

Q: What about the “tumour burden (M-proteins) on treatment” value (Vk*MYC myeloma cells; SPEP) of the same compound?
A: reduce tumour burden (M-proteins)

Q: And the median survival (Vk*MYC myeloma cells; vehicle 196.5 days)?
A: 243 days

Q: What about the “size of the spleen” value (Eμ-Myc lymphoma cells; single dose 35-45 mg/kg) of the same compound?
A: significantly reduced

Q: And the “number of tumour cells in peripheral blood and harvested spleen” value (Eμ-Myc lymphoma cells; single injection 35-45 mg/kg, 16 h)?
A: marked reduction in number of tumour cells in peripheral blood and harvested spleen

Q: And the “clearance of BRD4 protein with increasing temperature” value (BRD4)?
A: delayed clearance

Q: What about the “apoptosis in I-BET151-resistant MLL-AF9 cells” value [2] of the same compound?
A: capable of inducing apoptosis in I-BET151-resistant MLL-AF9 cells, comparable to the I-BETE151-sensitive cells

Q: And the “spleen and body weight” value ([3]; 50 mg/kg)?
A: no changes in spleen and body weight

Q: What about the “FBE at day 8” value ([3]; 50 mg/kg, day 8) of the same compound?
A: moderate thrombocytopenia

Q: What about the “FBE on day 15” value ([3]; 50 mg/kg, day 15) of the same compound?
A: recovered to the normal level

Q: And the MTD at 5 day ([3]; B6.SJL-Ptprc<a>Pepc<b>/BoyJ (B6.CD45.1), mouse, in vivo, ip, non-tumour bearing female mice, 5 day intraperitoneal injection)?
A: 50 mg/kg

Q: And the GI50 (OPM2 cells [4])?
A: ≤ 100 nM

Q: What about the gene set enrichment (MYC target genes) of the same compound?
A: enrichment against MYC target genes with a trend toward MTORC1 signaling genes
